Reference: patent publication US8841420B2, “Synthetic peptide constructs for the diagnosis and treatment of periodontis associated with Porphyromonas gingivalis” (priority 1997, dated 2014)
No end group written: not given here.

Legend:
[1] = test system: TLCK-inactivated PrtR-PrtK proteinase-adhesin complex; test: Competitive binding assay (ELISA, ABM peptide-coated plates); set-up: species or system Porphyromonas gingivalis W50; conditions: for inhibition of binding of the TLCK-inactivated PrtR-PrtK complex to the adsorbed ABM peptide: competitor in solution; for binding of the PrtR-PrtK complex to the substance: TLCK-inactivated complex
Method: Competitive Binding Assay
Wells of flat-bottomed polyvinyl microtitre plates (Microtitre, Dynatech Laboratories, VA) were coated overnight at 4° C. using a solution (5 mg/ml) of the adhesin binding motif (ABM) peptide in 0.1M phosphate buffered saline, pH 7.4, containing 0.1% v/v Tween 20 (PBST) and 0.1% w/v sodium azide. After removal of the coating solution, 2% w/v skim milk powder in PEST was added to block the remaining uncoated plastic for 1 hour at room temperature and then washed (4×PBST). A solution (1 mg/ml) of the PrtR-PrtK proteinase-adhesion complex (inactivated with 1 mM TLCK) was incubated with known concentrations of ABM peptide, control peptide and casein for 1 hour and then transferred to the microtitre plates coated with the ABM peptide. Following incubation for 2 hours at 37° C. the plates were washed (5×PBST). A 1/10,000 dilution of rabbit anti-PrtR-PrtK antisera in PBST containing 1% w/v skim milk powder was then added to the washed wells and incubated for 2 hours at 37° C. Bound antibody was detected by incubation with horseradish peroxidase-conjugated goat immunoglobulin (Ig) directed against rabbit Ig (BioRad, Richmond, Calif.) for 1.5 hours at 37° C. After washing (5×PBST), substrate (0.4 mM 3,3′,5,5′-tetramethylbenzidine in 0.1M sodium acetate/citric acid buffer containing 0.004% v/v hydrogen peroxide) was added and colour development was stopped by addition of 2M H2SO4. Optical density (O.D.) at 450 nm was measured using a BioRad microplate reader model 450.

[2] = test system: Porphyromonas gingivalis strain 33277; test: Murine lesion (abscess) model, immunisation then P. gingivalis challenge; assay type: in vivo, BALB/c mice; conditions: for Maximum lesion size: BALB/c mice immunised s.c. with 50 μg antigen (or 2×10^9 killed cells) in CFA then IFA, s.c. challenge 8×10^9 cells, measured over 10 days; for protection against P. gingivalis challenge (lesion size), in words: relative to DT or adjuvant alone controls
Method: BALB/c mice (6 per group) were inoculated (s.c.) with 50 μg of antigen emulsified in CFA and IFA for the primary and secondary inoculations and then challenged (s.c.) with 8×10^9 cells of P. gingivalis strain 33277.
BALB/c mice 6-8 weeks old were immunised subcutaneously with either 50 μg of the peptide-DT conjugate, 50 μg of DT or 2×10^9 formalin killed cells of Porphyromonas gingivalis strain 33277 emulsified in complete Freund's adjuvant (CFA). After 30 days the mice were injected subcutaneously with antigen (either 50 μg of the peptide-DT conjugate, 50 μg of DT or 2×10^9 formalin killed cells of Porphyromonas gingivalis strain 33277) emulsified in incomplete Freund's adjuvant (IFA) and then bled from the retrobulbar plexus 12 days later. All mice were challenged with 8×10^9 cells of P. gingivalis (200 μL) by subcutaneous injection in the abdomen and weighed and lesion size measured over 10 days. Lesion sizes are expressed as mm^2 and were statistically analysed using a Kruskal-Wallis one-way ANOVA and Mann-Whitney U-Wilcoxon rank sum W test.

[3] = target: T1, PrtRII50 Arg-specific proteinase (Porphyromonas gingivalis, UniProt P95493); assay type: biochemical, Porphyromonas gingivalis W50; conditions: inhibition at similar concentrations to that which inhibited the PrtR45
T1 construct: made in house; host or cells: Porphyromonas gingivalis W50 (native enzyme purified from cell sonicate, not recombinant)
T1 sequence (P95493 230-736): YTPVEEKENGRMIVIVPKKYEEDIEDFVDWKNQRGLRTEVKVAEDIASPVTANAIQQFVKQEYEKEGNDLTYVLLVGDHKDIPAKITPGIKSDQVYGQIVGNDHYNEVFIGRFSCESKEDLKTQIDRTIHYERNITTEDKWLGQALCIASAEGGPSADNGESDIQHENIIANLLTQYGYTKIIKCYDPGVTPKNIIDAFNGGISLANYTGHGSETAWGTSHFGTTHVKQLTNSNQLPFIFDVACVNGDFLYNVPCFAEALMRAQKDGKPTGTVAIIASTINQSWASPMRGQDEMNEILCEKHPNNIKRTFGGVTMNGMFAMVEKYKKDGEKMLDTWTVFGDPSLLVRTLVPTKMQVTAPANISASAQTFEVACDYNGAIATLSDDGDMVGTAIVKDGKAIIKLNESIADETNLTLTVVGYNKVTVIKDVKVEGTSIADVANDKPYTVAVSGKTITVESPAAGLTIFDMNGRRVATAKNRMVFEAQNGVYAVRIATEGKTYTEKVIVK
Method: P. gingivalis W50 was grown in batch culture (5 L) and harvested at late logarithmic phase by centrifugation (5,000×g, 20 min, 4° C.). Cells were washed once with 150 ml TC buffer (20 mM Tris-HCl pH 7.4 and 5 mM CaCl2) containing 50 mM NaCl and sonicated as described previously (Bhogal et al., 1997). The sonicate was centrifuged (100,000×g, 30 min, 4° C.) and the supernatant filtered (0.22 μm) prior to anion-exchange FPLC. The sonicate was applied to an anion-exchange column (Hiload XK 16/10 Q Sepharose, Pharmacia-LKB) cooled to 4° C., in multiple injections using a 50 ml superloop (Pharmacia-LKB). The sonicate was eluted using a linear gradient from 0-100% buffer B over 90 min at a flow rate of 2.0 ml min^−1. Absorbance was monitored at 280 nm and elutant collected at 4° C. in 6 ml fractions using a Frac 100 fraction collector (Pharmacia-LKB). Buffer A was TC buffer containing 50 mM NaCl and buffer B was TC buffer containing 500 mM NaCl. Fractions were analysed for proteolytic and amidolytic activity using azocasein (A-2765, Sigma Chemical Co. St Louis, Mo.), benzoyl-L-Arg-p-nitroanilide (Bz-L-Arg-pNA, Sigma) and benzyloxycarbonyl-L-Lys-p-nitroanilide (z-L-Lys-pNA, Calbiochem, Melbourne, Australia) as described previously (Bhogal et al., 1997) except that fractions were pre-incubated with 10 mM cysteine for 10 min at 25° C. before the addition of substrate. For the amidolytic assays absorbance was monitored at 410 nm as previously described (Bhogal et al., 1997) and the amidolytic activity expressed as U where U=μmol substrate converted min^−1 at 25° C. Anion-exchange fractions eluting between 160-246 mM NaCl containing the highest ratio of Arg-specific to Lys-specific activity were, washed and concentrated in TC buffer containing 150 mM NaCl using a centripep and centricon 10 concentrators (Amicon) and applied to a gel filtration column (Superose 12, HR 10/30, Pharmacia-LKB) using TC buffer containing 150 mM NaCl at a flow rate of 0.3 ml min^−1. Absorbance was monitored at 280 nm and fractions collected at 4° C. using a Frac 100 fraction collector. The Mr values of eluant peaks were determined using gel filtration molecular mass standards (Pharmacia-LKB). The peak eluting at 50 kDa containing only Arg-specific amidolytic activity was washed in TC buffer containing 50 mM NaCl using a centricon-10 concentrator (Amicon) and applied to a Mono Q (HR 5/5) anion-exchange column using a 5 ml loop and eluted using a linear gradient of 0-100% buffer B at a flow rate 1.0 ml min^−. Buffer A was TC buffer containing 150 mM NaCl, buffer B was TC buffer containing 500 mM NaCl. Absorbance was monitored at 280 nm and fractions collected at 4° C. using a Frac 100 fraction collector.

| Compound | Maximum lesion size [2] [mm^2] | effect on activity of the Arg-specific 50 kDa enzyme [3] | also measured |
| --- | --- | --- | --- |
| FNGGISLANYTGHGSETAWGT (listed as Porphyromonas gingivalis) [PAS1 (R45)] | – | – | inhibition of binding of the TLCK-inactivated PrtR-PrtK complex to the adsorbed ABM peptide ([1]; FIG. 10): did not inhibit |
| PAS1 (R45)-DT: PAS1 (R45) peptide (SEQ ID NO: 1) conjugated to diphtheria toxoid (FNGGISLANYTGHGSETAWGT; also: conjugated to diphtheria toxoid; listed as Porphyromonas gingivalis) | 10.46 | – | protection against P. gingivalis challenge (lesion size), in words [2]: Significantly reduced lesion size |
| ABM4 (K44)-DT: ABM4 (K44) peptide (SEQ ID NO: 35) conjugated to diphtheria toxoid (WIERTVDLPAGTKYVAFRHY-NH2; not fully specified (N-terminus); also: conjugated to diphtheria toxoid; listed as Porphyromonas gingivalis) | 18.83 | – | – |
| N[C@@H](CS)C(=O)O [cysteine] | – | activated | – |
| O=C(O)CN(CCN(CC(=O)O)CC(=O)O)CC(=O)O [EDTA] | – | inhibited | – |
| Control peptide-DT: Control peptide PrtR27 (1432-1463) (SEQ ID NO: 97) conjugated to diphtheria toxoid (ANEAKVVLAADNVWGDNTGYQFLLDADHNTFG; also: conjugated to diphtheria toxoid; listed as Porphyromonas gingivalis) [reference compound] | 36.61 | – | protection against P. gingivalis challenge (lesion size), in words [2]: did not provide protection |
| CC(=O)N[C@@H](CC(C)C)C(=O)N[C@@H](CC(C)C)C(=O)N[C@H](C=O)CCCNC(=N)N [leupeptin] | – | inhibited | – |
| casein [reference compound] | – | – | binding of the PrtR-PrtK complex to the substance [1]: lack of binding; inhibition of binding of the TLCK-inactivated PrtR-PrtK complex to the adsorbed ABM peptide ([1]; FIG. 10): did not inhibit |
| O=S(=O)(F)Cc1ccccc1 [phenylmethyl sulfonyl fluoride] | – | not inhibited | – |
| PYQPVSNLTATTQGQKVTLKWDAPSTK [ABM1 (R45)] | – | – | molar excess of peptide in solution required to inhibit binding of the complex to the ABM peptide adsorbed onto the microtitre plate ([1]; TLCK-inactivated PrtR-PrtK complex 1 mg/ml, FIG. 10): 5-100 fold; binding of the PrtR-PrtK complex to the substance [1]: Specific binding |
| ABM3 (K44)-OT: ABM3 (R44) peptide (SEQ ID NO: 98) conjugated to diphtheria toxoid (VTLKWDAPNGTPNPNPNPNPNPNPGTTTLSESF-NH2; not fully specified (N-terminus); also: conjugated to diphtheria toxoid; listed as Porphyromonas gingivalis) | 12.27 | – | – |
| ABM5 (R15)-DT: ABM5 (R15) peptide (SEQ ID NO: 50) conjugated to diphtheria toxoid (PAEWTTIDADGDGQGW-NH2; not fully specified (N-terminus); also: conjugated to diphtheria toxoid; listed as Porphyromonas gingivalis) | 14.79 | – | – |
| Diphtheria Toxoid [DT, reference compound] | 33.59 | – | protection against P. gingivalis challenge (lesion size), in words [2]: does not provide protection |
| NCCc1ccc(S(=O)(=O)F)cc1 [4-(2-aminoethyl)-benzenesulfonyl fluoride] | – | not inhibited | – |
